Experimental data reported in ChEMBL document CHEMBL5375967 (J Med Chem, 2023).
Active and inactive are the calls of the source. The calls are words filed in the database; no cut-off is given here.

How the values were obtained:
[1] = target: T1, Leukotriene A-4 hydrolase (Homo sapiens, UniProt P09960); test: Inhibition of LTA4H (unknown origin) using Arg-AMC as substrate preincubated with compound for 15 mins followed by substrate addition and measured after every 10 mins for 300 mins by fluorescence based assay
T1 sequence (P09960 whole entry): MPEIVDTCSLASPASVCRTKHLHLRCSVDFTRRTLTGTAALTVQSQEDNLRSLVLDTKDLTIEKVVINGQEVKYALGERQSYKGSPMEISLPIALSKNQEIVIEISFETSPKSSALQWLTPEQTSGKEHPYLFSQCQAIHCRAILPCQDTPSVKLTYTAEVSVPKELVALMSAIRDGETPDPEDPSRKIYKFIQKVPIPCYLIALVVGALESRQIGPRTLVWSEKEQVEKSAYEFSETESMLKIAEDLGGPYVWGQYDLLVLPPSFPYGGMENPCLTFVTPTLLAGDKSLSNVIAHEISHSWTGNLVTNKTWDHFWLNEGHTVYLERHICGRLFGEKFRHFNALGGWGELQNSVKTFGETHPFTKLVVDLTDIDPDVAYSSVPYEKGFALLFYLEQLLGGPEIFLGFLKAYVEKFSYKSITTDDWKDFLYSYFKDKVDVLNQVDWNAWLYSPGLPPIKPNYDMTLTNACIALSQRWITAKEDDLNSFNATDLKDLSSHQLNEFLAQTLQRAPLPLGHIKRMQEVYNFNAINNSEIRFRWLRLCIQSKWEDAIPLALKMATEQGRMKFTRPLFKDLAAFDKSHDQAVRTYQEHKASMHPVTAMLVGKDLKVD

[2] = Inhibition of calcium ionophore A23187-stimulated LTB4 release in C57BL/6 mouse model at 10 mg/kg, po bid measured after 2 hrs; type: functional
[3] = Inhibition of calcium ionophore A23187-stimulated LTB4 release in C57BL/6 mouse model at 10 mg/kg, po bid measured after 24 hrs; type: functional
[4] = Clearance in C57BL/6 mouse at 1 mg/kg, iv measured upto 24 hrs by LC-MS/MS analysis; type: ADME, organism-based; details: in vivo
[5] = Clearance in Wistar rat at 1 mg/kg, iv measured upto 24 hrs by LC-MS/MS analysis; type: ADME, organism-based; details: in vivo
[6] = Volume of distribution at steady state in Wistar rat at 1 mg/kg, iv measured upto 24 hrs by LC-MS/MS analysis; type: ADME, organism-based; details: in vivo, read-out: Vdss
[7] = MRT in Wistar rat at 1 mg/kg, iv measured upto 24 hrs by LC-MS/MS analysis; type: ADME, organism-based; details: in vivo
[8] = Half life in Wistar rat at 1 mg/kg, iv measured upto 24 hrs by LC-MS/MS analysis; type: ADME, organism-based; details: in vivo
[9] = Clearance in dog at 1 mg/kg, iv measured upto 24 hrs by LC-MS/MS analysis; type: ADME, organism-based, Canis lupus familiaris; details: in vivo
[10] = Cmax in C57BL/6 mouse at 3 mg/kg, po measured upto 24 hrs by LC-MS/MS analysis; type: ADME, organism-based; design: time < 24 hrs, dose 3 mg/kg, route po; details: in vivo
[11] = AUC (0 to infinity) in C57BL/6 mouse at 3 mg/kg, po measured upto 24 hrs by LC-MS/MS analysis; type: ADME, organism-based; design: time < 24 hrs, dose 3 mg/kg, route po; details: in vivo
[12] = Cmax in Wistar rat at 30 mg/kg, po measured upto 24 hrs by LC-MS/MS analysis; type: ADME, organism-based; design: time < 24 hrs, dose 30 mg/kg, route po; details: in vivo
[13] = Metabolic stability in mouse hepatocyte assessed as intrinsic clearance; type: ADME, cell-based; details: hepatocytes
[14] = AUC (0 to infinity) in Wistar rat at 30 mg/kg, po measured upto 24 hrs by LC-MS/MS analysis; type: ADME, organism-based; design: dose 30 mg/kg, time < 24 hrs, route po; details: in vivo
[15] = Oral bioavailability in Wistar rat at 3 mg/kg measured upto 24 hrs by LC-MS/MS analysis; type: ADME, organism-based; details: in vivo
[16] = Oral bioavailability in Wistar rat at 30 mg/kg measured upto 24 hrs by LC-MS/MS analysis; type: ADME, organism-based; details: in vivo
[17] = Cmax in dog at 3 mg/kg, po measured upto 24 hrs by LC-MS/MS analysis; type: ADME, organism-based, Canis lupus familiaris; design: time < 24 hrs, dose 3 mg/kg, route po; details: in vivo
[18] = Drug concentration in blood of arachidonic acid-induced skin inflammation 129S2/SvPasCrl mouse model at 0.03 mg/kg, po measured after 4 hrs; type: ADME, organism-based; details: read-out: Ct
[19] = Drug concentration in blood of arachidonic acid-induced skin inflammation 129S2/SvPasCrl mouse model at 0.3 mg/kg, po measured after 4 hrs; type: ADME, organism-based; details: read-out: Ct
[20] = Drug concentration in blood of arachidonic acid-induced skin inflammation 129S2/SvPasCrl mouse model at 3 mg/kg, po measured after 4 hrs; type: ADME, organism-based; details: read-out: Ct
[21] = Inhibition of neutrophil influx in arachidonic acid-stimulated skin inflammation 129S2/SvPasCrl mouse model assessed as effect on MPO level in skin at 0.3 mg/kg, po pretreated with compound for 4 hrs followed by arachidonic acid stimulation and measured after 1 hr; type: functional; details: time 5 hrs
[22] = test system: Mus musculus; test: Antiarthritic activity in KRN passive serum-induced arthritis C57BL/6 mouse model assessed as reduction in paw swelling at 0.1 to 10 mg/kg, po bid measured on day 7 at 2 hrs after first dose and 14 hrs after second dose; type: functional, organism-based; details: dose 0.1-10 mg/kg, time 7.0 day
[23] = test system: Mus musculus; test: Antiarthritic activity in KRN passive serum-induced arthritis C57BL/6 mouse model assessed as reduction in cellularity at 0.1 to 10 mg/kg, po bid measured on day 7 at 2 hrs after first dose and 14 hrs after second dose; type: functional, organism-based; details: dose 0.1-10 mg/kg, time 7.0 day
[24] = test system: Mus musculus; test: Antiarthritic activity in KRN passive serum-induced arthritis C57BL/6 mouse model assessed as reduction in neutrophil numbers at 0.1 to 10 mg/kg, po bid measured on day 7 at 2 hrs after first dose and 14 hrs after second dose; type: functional, organism-based; details: dose 0.1-10 mg/kg, time 7.0 day
[25] = target: T2, Voltage-gated inwardly rectifying potassium channel KCNH2 (Homo sapiens, UniProt Q12809)
[26] = target: T2, Voltage-gated inwardly rectifying potassium channel KCNH2; remark: listed apart in the source
[27] = target: T2, Voltage-gated inwardly rectifying potassium channel KCNH2; remark: listed apart in the source
[28] = in vivo; details: Sprague-Dawley, rat, iv, 1 mg/kg
[29] = in vivo; details: Sprague-Dawley, rat, iv, 1 mg/kg; remark: listed apart in the source
[30] = in vivo; details: Sprague-Dawley, rat, iv, 1 mg/kg; remark: listed apart in the source
[31] = in vivo; details: Sprague-Dawley, rat, po, 3 mg/kg
[32] = in vivo; details: Sprague-Dawley, rat, iv, 1 mg/kg; remark: listed apart in the source
[33] = in vivo; details: Sprague-Dawley, rat, iv, 1 mg/kg; remark: listed apart in the source
[34] = in vivo; details: C57BL/6, mouse, in vivo, po, 10 mg/kg
[35] = in vivo; details: C57BL/6, mouse, in vivo, po, 10 mg/kg; remark: listed apart in the source
[36] = physchem; details: octanol/water, pH 7.4
[37] = in vitro; details: rat, liver microsomes
[38] = in vitro; details: human, liver microsomes

T2 sequence (Q12809 whole entry): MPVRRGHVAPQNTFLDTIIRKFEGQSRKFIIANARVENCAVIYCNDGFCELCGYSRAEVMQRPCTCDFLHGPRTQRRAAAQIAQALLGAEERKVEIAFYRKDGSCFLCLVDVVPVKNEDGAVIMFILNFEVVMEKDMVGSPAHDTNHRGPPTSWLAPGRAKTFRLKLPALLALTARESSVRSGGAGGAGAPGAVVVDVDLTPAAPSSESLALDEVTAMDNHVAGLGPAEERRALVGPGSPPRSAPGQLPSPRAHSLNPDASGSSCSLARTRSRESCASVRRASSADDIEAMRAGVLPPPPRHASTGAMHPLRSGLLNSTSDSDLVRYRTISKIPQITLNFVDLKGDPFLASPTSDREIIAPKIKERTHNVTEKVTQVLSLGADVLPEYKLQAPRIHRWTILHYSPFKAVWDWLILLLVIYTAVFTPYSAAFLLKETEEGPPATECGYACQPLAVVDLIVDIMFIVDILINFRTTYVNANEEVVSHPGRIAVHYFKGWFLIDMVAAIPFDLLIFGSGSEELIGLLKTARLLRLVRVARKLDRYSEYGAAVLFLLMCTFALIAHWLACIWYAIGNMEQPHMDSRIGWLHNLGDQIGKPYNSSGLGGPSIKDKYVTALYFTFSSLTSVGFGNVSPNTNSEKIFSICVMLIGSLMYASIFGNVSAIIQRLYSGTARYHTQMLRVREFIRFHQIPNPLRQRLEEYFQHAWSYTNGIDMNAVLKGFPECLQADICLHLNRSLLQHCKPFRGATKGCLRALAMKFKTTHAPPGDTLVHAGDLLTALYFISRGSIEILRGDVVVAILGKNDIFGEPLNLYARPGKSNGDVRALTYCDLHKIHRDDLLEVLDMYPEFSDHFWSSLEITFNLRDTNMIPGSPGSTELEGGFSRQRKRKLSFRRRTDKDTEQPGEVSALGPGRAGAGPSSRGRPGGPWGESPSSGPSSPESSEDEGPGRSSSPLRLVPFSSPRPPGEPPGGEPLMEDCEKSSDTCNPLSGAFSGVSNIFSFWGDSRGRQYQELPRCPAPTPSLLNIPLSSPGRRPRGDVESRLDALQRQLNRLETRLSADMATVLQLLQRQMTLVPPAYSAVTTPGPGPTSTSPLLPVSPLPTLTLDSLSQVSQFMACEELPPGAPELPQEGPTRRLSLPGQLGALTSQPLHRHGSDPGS

For `N[C@H](CO)Cn1ccc(-c2ccc(Oc3ncc(-c4cc[nH]n4)cc3F)cc2)n1`, the IC50 [1] was less than 0.003 µM, the inhibition in vivo at 10 mg/kg [2] was 95% and the inhibition in vivo at 10 mg/kg [3] was 93%. The clearance [4] was 7.5 mL/min/kg, the clearance [5] was 7.3 mL/min/kg and the Vd [6] was 6.9 L/kg. The MRT [7] was 16 h, the half-life [8] was 13 h and the clearance [9] was 2.2 mL/min/kg. For the same molecule, the Cmax [10] was 443 nM, the AUC(0-inf) [11] was 5.51 µM·h and the Cmax [12] was 5490 nM. It also gave a CLH [13] of 6 µL/min/mg, an AUC(0-inf) [14] of 59.2 µM·h and a bioavailability [15] of 39%. It also gave a bioavailability [16] of 46%, a Cmax [17] of 1180 nM and a concentration at 4 h [18] of 79 nM. It also gave a concentration at 4 h [19] of 108 nM, a concentration at 4 h [20] of 367 nM and an inhibition in vivo at 0.3 mg/kg [21] of 81%. The Activity [22] was “Active”, the Activity [23] was “Active” and the Activity [24] was “Active”. It also gave an IC50 [25] greater than 30 µM, an IC50 [26] greater than 30 µM and an IC50 [27] of 27 µM. The clearance [28] was 20 mL/min/kg, the Vd [29] was 5.5 L/kg and the MRT [30] was 4.6 h. It also gave an AUC(0-inf) [31] of 3.87 µM·h, a bioavailability [32] of 57% and a Cmax [33] of 298 nM. For the same molecule, the concentration at 2 h [34] was 2600 nM, the concentration at 24 h [35] was 218 nM and the logD [36] was 2. The microsomal CLint [37] was 179 µL/min/mg and the microsomal CLint [38] was less than 25 µL/min/mg.
